# T1: OATP1B3 (Homo sapiens, UniProt Q9NPD5)
# T1 sequence (Q9NPD5 1-702): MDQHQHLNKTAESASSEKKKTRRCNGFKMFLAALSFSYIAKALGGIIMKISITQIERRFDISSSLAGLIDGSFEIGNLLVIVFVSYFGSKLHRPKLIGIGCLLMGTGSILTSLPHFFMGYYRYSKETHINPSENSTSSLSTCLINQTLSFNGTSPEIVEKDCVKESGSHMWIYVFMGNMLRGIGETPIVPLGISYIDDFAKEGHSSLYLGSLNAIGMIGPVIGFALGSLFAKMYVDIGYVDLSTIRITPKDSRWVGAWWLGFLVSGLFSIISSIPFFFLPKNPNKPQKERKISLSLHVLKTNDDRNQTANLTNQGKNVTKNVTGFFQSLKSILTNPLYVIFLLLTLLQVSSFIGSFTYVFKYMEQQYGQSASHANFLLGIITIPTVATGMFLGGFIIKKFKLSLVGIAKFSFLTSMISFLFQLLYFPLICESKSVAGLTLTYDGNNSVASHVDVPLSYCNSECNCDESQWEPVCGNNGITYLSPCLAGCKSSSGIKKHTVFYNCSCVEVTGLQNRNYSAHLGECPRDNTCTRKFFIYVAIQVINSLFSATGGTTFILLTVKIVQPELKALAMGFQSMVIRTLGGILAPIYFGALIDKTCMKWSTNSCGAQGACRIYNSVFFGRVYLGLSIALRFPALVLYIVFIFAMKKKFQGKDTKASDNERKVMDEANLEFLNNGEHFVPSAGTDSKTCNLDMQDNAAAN
# T2: OATP1B1 (Homo sapiens, UniProt Q9Y6L6)
# T2 sequence (Q9Y6L6 1-691): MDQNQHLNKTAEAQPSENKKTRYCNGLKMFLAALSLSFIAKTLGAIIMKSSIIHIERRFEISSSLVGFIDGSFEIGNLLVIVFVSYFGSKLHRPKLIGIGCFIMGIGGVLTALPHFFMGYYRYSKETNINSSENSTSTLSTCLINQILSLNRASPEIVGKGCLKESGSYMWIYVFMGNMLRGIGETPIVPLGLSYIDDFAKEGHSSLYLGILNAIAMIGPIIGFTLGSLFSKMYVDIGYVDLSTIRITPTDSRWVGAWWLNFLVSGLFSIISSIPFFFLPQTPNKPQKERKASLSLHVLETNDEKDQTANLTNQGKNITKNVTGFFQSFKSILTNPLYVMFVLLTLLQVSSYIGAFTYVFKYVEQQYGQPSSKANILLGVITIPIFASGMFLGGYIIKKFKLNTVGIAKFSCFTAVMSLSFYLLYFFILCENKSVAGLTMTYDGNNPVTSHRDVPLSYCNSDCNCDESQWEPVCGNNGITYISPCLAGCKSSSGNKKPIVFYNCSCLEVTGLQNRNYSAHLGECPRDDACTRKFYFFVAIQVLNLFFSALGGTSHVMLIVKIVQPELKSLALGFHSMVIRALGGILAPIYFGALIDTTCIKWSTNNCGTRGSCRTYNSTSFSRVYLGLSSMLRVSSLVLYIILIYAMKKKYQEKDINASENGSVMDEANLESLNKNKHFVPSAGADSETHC
# How the values were obtained:
# Experiment in all cases: flow cytometry uptake in Sf9 cells expressing the transporter
# OATP1B3 = biological target: T1, OATP1B3; assay type: cell-based
# OATP1B1 = biological target: T2, OATP1B1; assay type: cell-based
# [1] = substrate: O=C1OC2(c3ccc(O)cc3Oc3cc(O)ccc32)c2ccccc21; assay type: cell-based, Homo sapiens
Molecule,Km (OATP1B3),Km (OATP1B1),Km [1]
"O=C1OC2(c3ccc(O)cc3Oc3cc(O)ccc32)c2ccccc21 [Na-Fluo, sodium fluorescein]",38.6 µM,–,–
fluorescein-methotrexate [Fl-MTX],0.53 µM,0.23 µM,–
OATP1B1 (Homo sapiens) (protein) MDQNQHLNKTAEAQPSENKKTRYCNGLKMFLAALSLSFIAKTLGAIIMKSSIIHIERRFEISSSLVGFIDGSFEIGNLLVIVFVSYFGSKLHRPKLIGIGCFIMGIGGVLTALPHFFMGYYRYSKETNINSSENSTSTLSTCLINQILSLNRASPEIVGKGCLKESGSYMWIYVFMGNMLRGIGETPIVPLGLSYIDDFAKEGHSSLYLGILNAIAMIGPIIGFTLGSLFSKMYVDIGYVDLSTIRITPTDSRWVGAWWLNFLVSGLFSIISSIPFFFLPQTPNKPQKERKASLSLHVLETNDEKDQTANLTNQGKNITKNVTGFFQSFKSILTNPLYVMFVLLTLLQVSSYIGAFTYVFKYVEQQYGQPSSKANILLGVITIPIFASGMFLGGYIIKKFKLNTVGIAKFSCFTAVMSLSFYLLYFFILCENKSVAGLTMTYDGNNPVTSHRDVPLSYCNSDCNCDESQWEPVCGNNGITYISPCLAGCKSSSGNKKPIVFYNCSCLEVTGLQNRNYSAHLGECPRDDACTRKFYFFVAIQVLNLFFSALGGTSHVMLIVKIVQPELKSLALGFHSMVIRALGGILAPIYFGALIDTTCIKWSTNNCGTRGSCRTYNSTSFSRVYLGLSSMLRVSSLVLYIILIYAMKKKYQEKDINASENGSVMDEANLESLNKNKHFVPSAGADSETHC,–,–,25.73 µM
